Experimental data taken from patent publication US20230355626A1, “INHIBITORS OF HUMAN IMMUNODEFICIENCY VIRUS REPLICATION” (VIIV HEALTHCARE UK (NO.5) LIMITED, priority 2020, published 2023).

What was measured:
recombinant NL4-3 virus = test: HIV cell culture assay (antiviral activity, luciferase readout in infected MT-2 cells); type: cell-based; conditions: Human immunodeficiency virus 1, NL43, MT2
Experimental: HIV cell culture assay—MT-2 cells, 293T cells and the proviral DNA clone of NL4-3 virus were obtained from the NIH AIDS Research and Reference Reagent Program. MT-2 cells were propagated in RPMI 1640 media supplemented with 10% heat inactivated fetal bovine serum (FBS), 100 μg/ml penicillin G and up to 100 units/mL streptomycin. The 293T cells were propagated in DMEM media supplemented with 10% heat inactivated FBS, 100 μg/mL penicillin G and 100 μg/mL streptomycin. A recombinant NL4-3 proviral clone, in which a section of the nef gene was replaced with the Renilla luciferase gene, was used to make the reference virus used in these studies. The recombinant virus was prepared through transfection of the recombinant NL4-3 proviral clone into 293T cells using Transit-293 Transfection Reagent from Mirus Bio LLC (Madison, WI). Supernatant was harvested after 2-3 days and the amount of virus present was titered in MT-2 cells using luciferase enzyme activity as a marker by measuring luciferase enzyme activity. Luciferase was quantitated using the EnduRen Live Cell Substrate from Promega (Madison, WI). Antiviral activities of compounds toward the recombinant virus were quantified by measuring luciferase activity in MT-2 cells infected for 4-5 days with the recombinant virus in the presence of serial dilutions of the compound.
The 50% effective concentration (EC50) was calculated by using the exponential form of the median effect equation where (Fa)=1/[1+(ED50/drug conc.)m] (Johnson VA, Byington RT. Infectivity Assay. In Techniques in HIV Research. ed. Aldovini A, Walker BD. 71-76. New York: Stockton Press.1990). Curve fitting and analysis were performed with ActivityBase XE Runner software version 9.1.0.4 using model 203 (ID Business Solutions, LTD, Guildford, UK).

[1] = Compound cytotoxicity, XTT-based colorimetric assay; type: cell-based; conditions: human; uninfected MT2 cells, day 4, XTT assay
Experimental: Compound cytotoxicity and the corresponding CC50 values were determined using the same protocol as described in the antiviral assay except that uninfected cells were used. Cytotoxicity was assessed on day 4 in uninfected MT2 cells by using an XTT (2,3-bis[2-Methoxy-4-nitro-5-sulfophenyl]-2H-tetrazolium-5-carboxyanilide inner salt)-based colorimetric assay (Sigma-Aldrich, St Louis, Mo).

Row | Structure (SMILES) | EC50 (recombinant NL4-3 virus) | CC50 at 4 day [1]
1 | Cn1nc(NS(C)(=O)=O)c2c(Cl)ccc(-n3c([C@H](Cc4cc(F)cc(F)c4)NC(=O)Cn4nc(C(F)F)c5c4C(F)(F)[C@@H]4C[C@H]54)nc4nc(OC5CC=CC5)ccc4c3=O)c21 (atropisomer, axis not shown; (P)) [Example 1, N-((S)-1-((3P)-3-(4-chloro-1-methyl-3-(methylsulfonamido)-1H-indazol-7-yl)-7-(cyclopent-3-en-1-yloxy)-4-oxo-3,4-dihydropyrido[2,3-d]pyrimidin-2-yl)-2-(3,5-difluorophenyl)ethyl)-2-((3bS,4aR)-3-(difluoromethyl)-5,5-difluoro-3b,4,4a,5-tetrahydro-1H-cyclopropa[3,4]cyclopenta[1,2-c]pyrazol-1-yl)acetamide] | 0.024 nM | > 100 nM
2 | Cn1nc(NS(C)(=O)=O)c2c(Cl)ccc(-n3c([C@H](Cc4cc(F)cc(F)c4)NC(=O)Cn4nc(C(F)F)c5c4C(F)(F)[C@@H]4C[C@H]54)nc4nc(OCc5ccncc5)ccc4c3=O)c21 (atropisomer, axis not shown; (P)) [Example 2, N-((S)-1-((3P,3P)-3-(4-chloro-1-methyl-3-(methylsulfonamido)-1H-indazol-7-yl)-4-oxo-7-(pyridin-4-ylmethoxy)-3,4-dihydropyrido[2,3-d]pyrimidin-2-yl)-2-(3,5-difluorophenyl)ethyl)-2-((3bS,4aR)-3-(difluoromethyl)-5,5-difluoro-3b,4,4a,5-tetrahydro-1H-cyclopropa[3,4]cyclopenta[1,2-c]pyrazol-1-yl)acetamide] | 0.06 nM | > 100 nM
3 | Cn1nc(NS(C)(=O)=O)c2c(Cl)ccc(-n3c([C@H](Cc4cc(F)cc(F)c4)NC(=O)Cn4nc(C(F)F)c5c4C(F)(F)[C@@H]4C[C@H]54)nc4nc(OCc5cccnc5)ccc4c3=O)c21 (atropisomer, axis not shown; (P)) [Example 3, N-[(1S)-1-[(3P)-3-(4-chloro-3-methanesulfonamido-1-methyl-1H-indazol-7-yl)-4-oxo-7-[(pyridin-3-yl)methoxy]-3H,4H-pyrido[2,3-d]pyrimidin-2-yl]-2-(3,5-difluorophenyl)ethyl]-2-[(2S,4R)-9-(difluoromethyl)-5,5-difluoro-7,8-diazatricyclo[4.3.0.0^2,^4]nona-1(6),8-dien-7-yl]acetamide] | 0.048 nM | > 100 nM
4 | Cn1nc(NS(C)(=O)=O)c2c(Cl)ccc(-n3c([C@H](Cc4cc(F)cc(F)c4)NC(=O)Cn4nc(C(F)F)c5c4C(F)(F)[C@@H]4C[C@H]54)nc4nc(OCCC(C)(C)C(F)(F)F)ccc4c3=O)c21 (atropisomer, axis not shown; (P)) [Example 4, N-((S)-1-((3P)-3-(4-chloro-1-methyl-3-(methylsulfonamido)-1H-indazol-7-yl)-4-oxo-7-(4,4,4-trifluoro-3,3-dimethylbutoxy)-3,4-dihydropyrido[2,3-d]pyrimidin-2-yl)-2-(3,5-difluorophenyl)ethyl)-2-((3bS,4aR)-3-(difluoromethyl)-5,5-difluoro-3b,4,4a,5-tetrahydro-1H-cyclopropa[3,4]cyclopenta[1,2-c]pyrazol-1-yl)acetamide] | 0.078 nM | > 200 nM
5 | Cn1nc(NS(C)(=O)=O)c2c(Cl)ccc(-n3c([C@H](Cc4cc(F)cc(F)c4)NC(=O)Cn4nc(C(F)F)c5c4C(F)(F)[C@@H]4C[C@H]54)nc4nc(OCCC(C)(C)c5ccccc5)ccc4c3=O)c21 (atropisomer, axis not shown; (P)) [Example 5, N-((S)-1-((3P)-3-(4-chloro-1-methyl-3-(methylsulfonamido)-1H-indazol-7-yl)-7-(3-methyl-3-phenylbutoxy)-4-oxo-3,4-dihydropyrido[2,3-d]pyrimidin-2-yl)-2-(3,5-difluorophenyl)ethyl)-2-((3bS,4aR)-3-(difluoromethyl)-5,5-difluoro-3b,4,4a,5-tetrahydro-1H-cyclopropa[3,4]cyclopenta[1,2-c]pyrazol-1-yl)acetamide] | 0.43 nM | > 100 nM
6 | Cc1cc(C)nc(COc2ccc3c(=O)n(-c4ccc(Cl)c5c(NS(C)(=O)=O)nn(C)c45)c([C@H](Cc4cc(F)cc(F)c4)NC(=O)Cn4nc(C(F)F)c5c4C(F)(F)[C@@H]4C[C@H]54)nc3n2)n1 (atropisomer, axis not shown; (P)) [Example 6, N-((S)-1-((3P,3P)-3-(4-chloro-1-methyl-3-(methylsulfonamido)-1H-indazol-7-yl)-7-((4,6-dimethylpyrimidin-2-yl)methoxy)-4-oxo-3,4-dihydropyrido[2,3-d]pyrimidin-2-yl)-2-(3,5-difluorophenyl)ethyl)-2-((3bS,4aR)-3-(difluoromethyl)-5,5-difluoro-3b,4,4a,5-tetrahydro-1H-cyclopropa[3,4]cyclopenta[1,2-c]pyrazol-1-yl)acetamide] | 0.036 nM | > 500 nM
7 | Cc1ccnc(COc2ccc3c(=O)n(-c4ccc(Cl)c5c(NS(C)(=O)=O)nn(C)c45)c([C@H](Cc4cc(F)cc(F)c4)NC(=O)Cn4nc(C(F)F)c5c4C(F)(F)[C@@H]4C[C@H]54)nc3n2)n1 (atropisomer, axis not shown; (P)) [Example 7, N-((S)-1-((3P,3P)-3-(4-chloro-1-methyl-3-(methylsulfonamido)-1H-indazol-7-yl)-7-((4-methylpyrimidin-2-yl)methoxy)-4-oxo-3,4-dihydropyrido[2,3-d]pyrimidin-2-yl)-2-(3,5-difluorophenyl)ethyl)-2-((3bS,4aR)-3-(difluoromethyl)-5,5-difluoro-3b,4,4a,5-tetrahydro-1H-cyclopropa[3,4]cyclopenta[1,2-c]pyrazol-1-yl)acetamide] | 0.059 nM | > 500 nM
8 | Cc1cnc(COc2ccc3c(=O)n(-c4ccc(Cl)c5c(NS(C)(=O)=O)nn(C)c45)c([C@H](Cc4cc(F)cc(F)c4)NC(=O)Cn4nc(C(F)F)c5c4C(F)(F)[C@@H]4C[C@H]54)nc3n2)nc1 (atropisomer, axis not shown; (P)) [Example 8, N-((S)-1-((3P,3P)-3-(4-chloro-1-methyl-3-(methylsulfonamido)-1H-indazol-7-yl)-7-((5-methylpyrimidin-2-yl)methoxy)-4-oxo-3,4-dihydropyrido[2,3-d]pyrimidin-2-yl)-2-(3,5-difluorophenyl)ethyl)-2-((3bS,4aR)-3-(difluoromethyl)-5,5-difluoro-3b,4,4a,5-tetrahydro-1H-cyclopropa[3,4]cyclopenta[1,2-c]pyrazol-1-yl)acetamide] | 0.049 nM | > 100 nM
9 | CN(CCOc1ccc2c(=O)n(-c3ccc(Cl)c4c(NS(C)(=O)=O)nn(C)c34)c([C@H](Cc3cc(F)cc(F)c3)NC(=O)Cn3nc(C(F)F)c4c3C(F)(F)[C@@H]3C[C@H]43)nc2n1)CC(F)(F)F (atropisomer, axis not shown; (P)) [Example 9, N-((S)-1-((3P)-3-(4-chloro-1-methyl-3-(methylsulfonamido)-1H-indazol-7-yl)-7-(2-(methyl(2,2,2-trifluoroethyl)amino)ethoxy)-4-oxo-3,4-dihydropyrido[2,3-d]pyrimidin-2-yl)-2-(3,5-difluorophenyl)ethyl)-2-((3bS,4aR)-3-(difluoromethyl)-5,5-difluoro-3b,4,4a,5-tetrahydro-1H-cyclopropa[3,4]cyclopenta[1,2-c]pyrazol-1-yl)acetamide] | 0.018 nM | > 100 nM
10 | CN(CCOc1ccc2c(=O)n(-c3ccc(Cl)c4c(NS(C)(=O)=O)nn(C)c34)c([C@H](Cc3cc(F)cc(F)c3)NC(=O)Cn3nc(C(F)F)c4c3C(F)(F)[C@@H]3C[C@H]43)nc2n1)S(C)(=O)=O (atropisomer, axis not shown; (P)) [Example 10, N-((S)-1-((3P)-3-(4-chloro-1-methyl-3-(methylsulfonamido)-1H-indazol-7-yl)-7-(2-(N-methylmethylsulfonamido)ethoxy)-4-oxo-3,4-dihydropyrido[2,3-d]pyrimidin-2-yl)-2-(3,5-difluorophenyl)ethyl)-2-((3bS,4aR)-3-(difluoromethyl)-5,5-difluoro-3b,4,4a,5-tetrahydro-1H-cyclopropa[3,4]cyclopenta[1,2-c]pyrazol-1-yl)acetamide] | 0.041 nM | > 500 nM
11 | Cn1nc(NS(C)(=O)=O)c2c(Cl)ccc(-n3c([C@H](Cc4cc(F)cc(F)c4)NC(=O)Cn4nc(C(F)F)c5c4C(F)(F)[C@@H]4C[C@H]54)nc4nc(OCCC5CC(F)(F)C5)ccc4c3=O)c21 (atropisomer, axis not shown; (P)) [Example 32, N-((S)-1-((3P,3P)-3-(4-chloro-1-methyl-3-(methylsulfonamido)-1H-indazol-7-yl)-7-(2-(3,3-difluorocyclobutyl)ethoxy)-4-oxo-3,4-dihydropyrido[2,3-d]pyrimidin-2-yl)-2-(3,5-difluorophenyl)ethyl)-2-((3bS,4aR)-3-(difluoromethyl)-5,5-difluoro-3b,4,4a,5-tetrahydro-1H-cyclopropa[3,4]cyclopenta[1,2-c]pyrazol-1-yl)acetamide] | – | > 100 nM
